According to PubChem BioAssay (NCI):
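These data come from cells grown in 96-well plates and exposed to compound for 48 hours at five concentrations. Here, GI50 denotes the concentration required for 50% inhibition of growth. TGI denotes the concentration required for complete inhibition of growth.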

Assays:
Assay in all cases: NCI tumour cell line growth inhibition, 48 h
786-0 renal = test system: 786-0 renal
A498 renal = test system: A498 renal
A549 NSCLC = test system: A549 NSCLC
ACHN renal = test system: ACHN renal
CAKI-1 renal = test system: CAKI-1 renal
COLO 205 colon = test system: COLO 205 colon
DU-145 prostate = test system: DU-145 prostate
EKVX NSCLC = test system: EKVX NSCLC
HCC-2998 colon = test system: HCC-2998 colon
HCT-116 colon = test system: HCT-116 colon
HCT-15 colon = test system: HCT-15 colon
HL-60(TB) leukemia = test system: HL-60(TB) leukemia
HOP-62 NSCLC = test system: HOP-62 NSCLC
HOP-92 NSCLC = test system: HOP-92 NSCLC
HS 578T breast = test system: HS 578T breast
HT29 colon = test system: HT29 colon
IGROV1 ovarian = test system: IGROV1 ovarian
K-562 leukemia = test system: K-562 leukemia
KM12 colon = test system: KM12 colon
LOX IMVI melanoma = test system: LOX IMVI melanoma
M14 melanoma = test system: M14 melanoma
MALME-3M melanoma = test system: MALME-3M melanoma
MCF7 breast = test system: MCF7 breast
MDA-MB-435 = test system: MDA-MB-435
MDA-N = test system: MDA-N
NCI-H23 lung = test system: NCI-H23 lung
NCI-H460 lung = test system: NCI-H460 lung
NCI-H522 lung = test system: NCI-H522 lung
NCI/ADR-RES ovarian = test system: NCI/ADR-RES ovarian
OVCAR-3 ovarian = test system: OVCAR-3 ovarian
OVCAR-4 ovarian = test system: OVCAR-4 ovarian
OVCAR-5 ovarian = test system: OVCAR-5 ovarian
OVCAR-8 ovarian = test system: OVCAR-8 ovarian
PC-3 prostate = test system: PC-3 prostate
RXF 393 renal = test system: RXF 393 renal
SF-268 CNS = test system: SF-268 CNS
SF-295 CNS = test system: SF-295 CNS
SF-539 CNS = test system: SF-539 CNS
SK-MEL-2 melanoma = test system: SK-MEL-2 melanoma
SK-MEL-28 melanoma = test system: SK-MEL-28 melanoma
SK-MEL-5 melanoma = test system: SK-MEL-5 melanoma
SK-OV-3 ovarian = test system: SK-OV-3 ovarian
SN12C renal = test system: SN12C renal
SNB-19 CNS = test system: SNB-19 CNS
SNB-75 CNS = test system: SNB-75 CNS
SR leukemia = test system: SR leukemia
SW-620 colon = test system: SW-620 colon
T-47D breast = test system: T-47D breast
TK-10 renal = test system: TK-10 renal
U251 CNS = test system: U251 CNS
UACC-257 melanoma = test system: UACC-257 melanoma
UACC-62 melanoma = test system: UACC-62 melanoma
UO-31 renal = test system: UO-31 renal
BT-549 breast = test system: BT-549 breast
CCRF-CEM leukemia = test system: CCRF-CEM leukemia
MDA-MB-231 breast = test system: MDA-MB-231 breast
MOLT-4 leukemia = test system: MOLT-4 leukemia
NCI-H226 lung = test system: NCI-H226 lung
RPMI-8226 leukemia = test system: RPMI-8226 leukemia

In the case of `CC(C)(C)C1=C(Br)C(Br)(C(C)(C)C)OP1(=O)c1ccccc1` (stereo unspecified), the TGI (786-0 renal) is reported as greater than 100 µM, the TGI (A498 renal) is reported as greater than 100 µM and the TGI (A549 NSCLC) is reported as greater than 100 µM. For the same molecule, the TGI (ACHN renal) was greater than 100 µM, the TGI (CAKI-1 renal) was greater than 100 µM and the TGI (COLO 205 colon) was greater than 100 µM. The TGI (DU-145 prostate) was greater than 100 µM, the TGI (EKVX NSCLC) was greater than 100 µM and the TGI (HCC-2998 colon) was greater than 100 µM. It also gave a TGI (HCT-116 colon) greater than 100 µM, a TGI (HCT-15 colon) greater than 100 µM and a TGI (HL-60(TB) leukemia) greater than 100 µM. It also gave a TGI (HOP-62 NSCLC) greater than 100 µM, a TGI (HOP-92 NSCLC) greater than 100 µM and a TGI (HS 578T breast) greater than 100 µM. It also gave a TGI (HT29 colon) greater than 100 µM, a TGI (IGROV1 ovarian) greater than 100 µM and a TGI (K-562 leukemia) greater than 100 µM. For the same molecule, the TGI (KM12 colon) was greater than 100 µM, the TGI (LOX IMVI melanoma) was greater than 100 µM and the TGI (M14 melanoma) was greater than 100 µM. It also gave a TGI (MALME-3M melanoma) greater than 100 µM, a TGI (MCF7 breast) greater than 100 µM and a TGI (MDA-MB-435) greater than 100 µM. For the same molecule, the TGI (MDA-N) was greater than 100 µM, the TGI (NCI-H23 lung) was greater than 100 µM and the TGI (NCI-H460 lung) was greater than 100 µM. The TGI (NCI-H522 lung) was greater than 100 µM, the TGI (NCI/ADR-RES ovarian) was greater than 100 µM and the TGI (OVCAR-3 ovarian) was greater than 100 µM. For the same molecule, the TGI (OVCAR-4 ovarian) was greater than 100 µM, the TGI (OVCAR-5 ovarian) was greater than 100 µM and the TGI (OVCAR-8 ovarian) was greater than 100 µM. The TGI (PC-3 prostate) was greater than 100 µM, the TGI (RXF 393 renal) was greater than 100 µM and the TGI (SF-268 CNS) was greater than 100 µM. For the same molecule, the TGI (SF-295 CNS) was greater than 100 µM, the TGI (SF-539 CNS) was greater than 100 µM and the TGI (SK-MEL-2 melanoma) was greater than 100 µM. It also gave a TGI (SK-MEL-28 melanoma) greater than 100 µM, a TGI (SK-MEL-5 melanoma) greater than 100 µM and a TGI (SK-OV-3 ovarian) greater than 100 µM. The TGI (SN12C renal) was greater than 100 µM, the TGI (SNB-19 CNS) was greater than 100 µM and the TGI (SNB-75 CNS) was greater than 100 µM. For the same molecule, the TGI (SR leukemia) was greater than 100 µM, the TGI (SW-620 colon) was greater than 100 µM and the TGI (T-47D breast) was greater than 100 µM. For the same molecule, the TGI (TK-10 renal) was greater than 100 µM, the TGI (U251 CNS) was greater than 100 µM and the TGI (UACC-257 melanoma) was greater than 100 µM. For the same molecule, the TGI (UACC-62 melanoma) was greater than 100 µM and the TGI (UO-31 renal) was greater than 100 µM.
`CCOc1cccc(/C=N/NC(=O)c2ccccc2Nc2ccnc(C(F)(F)F)c2)c1O` gave a GI50 (786-0 renal) of 1.32 µM, a TGI (786-0 renal) of 24 µM and a GI50 (A498 renal) of 20.1 µM. The TGI (A498 renal) was greater than 74.8 µM, the GI50 (A549 NSCLC) was 1.64 µM and the TGI (A549 NSCLC) was greater than 100 µM. For the same molecule, the GI50 (ACHN renal) was 0.271 µM, the TGI (ACHN renal) was greater than 67.8 µM and the GI50 (BT-549 breast) was 0.494 µM. It also gave a TGI (BT-549 breast) of 53.6 µM, a GI50 (CAKI-1 renal) of 0.222 µM and a TGI (CAKI-1 renal) of 10.5 µM. It also gave a GI50 (CCRF-CEM leukemia) of 0.136 µM, a TGI (CCRF-CEM leukemia) greater than 31.4 µM and a GI50 (COLO 205 colon) of 0.347 µM. For the same molecule, the TGI (COLO 205 colon) was 36.9 µM, the GI50 (DU-145 prostate) was 0.63 µM and the TGI (DU-145 prostate) was greater than 100 µM. For the same molecule, the GI50 (EKVX NSCLC) was 0.404 µM, the TGI (EKVX NSCLC) was greater than 100 µM and the GI50 (HCC-2998 colon) was 0.398 µM. For the same molecule, the TGI (HCC-2998 colon) was greater than 44.2 µM, the GI50 (HCT-116 colon) was 0.336 µM and the TGI (HCT-116 colon) was greater than 51.9 µM. For the same molecule, the GI50 (HCT-15 colon) was 0.195 µM, the TGI (HCT-15 colon) was greater than 100 µM and the GI50 (HL-60(TB) leukemia) was 0.253 µM. For the same molecule, the TGI (HL-60(TB) leukemia) was 0.621 µM, the GI50 (HOP-62 NSCLC) was 0.901 µM and the TGI (HOP-62 NSCLC) was greater than 53.8 µM. The GI50 (HOP-92 NSCLC) was 0.246 µM, the TGI (HOP-92 NSCLC) was 19.7 µM and the GI50 (HS 578T breast) was 6.92 µM. For the same molecule, the TGI (HS 578T breast) was greater than 100 µM, the GI50 (HT29 colon) was 3.79 µM and the TGI (HT29 colon) was greater than 100 µM. For the same molecule, the GI50 (IGROV1 ovarian) was 0.0425 µM, the TGI (IGROV1 ovarian) was 0.243 µM and the GI50 (K-562 leukemia) was 0.322 µM. The TGI (K-562 leukemia) was 10.4 µM, the GI50 (KM12 colon) was 0.513 µM and the TGI (KM12 colon) was 47.7 µM. It also gave a GI50 (LOX IMVI melanoma) of 0.241 µM, a TGI (LOX IMVI melanoma) greater than 100 µM and a GI50 (M14 melanoma) of 0.661 µM. It also gave a TGI (M14 melanoma) of 2.91 µM, a GI50 (MALME-3M melanoma) of 0.835 µM and a TGI (MALME-3M melanoma) of 43.6 µM. The GI50 (MCF7 breast) was 0.34 µM, the TGI (MCF7 breast) was 25.4 µM and the GI50 (MDA-MB-231 breast) was 0.7 µM. It also gave a TGI (MDA-MB-231 breast) greater than 100 µM, a GI50 (MDA-MB-435) of 1.07 µM and a TGI (MDA-MB-435) of 77.4 µM. It also gave a GI50 (MOLT-4 leukemia) of 0.116 µM, a TGI (MOLT-4 leukemia) of 0.459 µM and a GI50 (NCI-H226 lung) of 0.664 µM. The TGI (NCI-H226 lung) was 19.1 µM, the GI50 (NCI-H23 lung) was 1.08 µM and the TGI (NCI-H23 lung) was greater than 64.5 µM. It also gave a GI50 (NCI-H460 lung) of 0.272 µM, a TGI (NCI-H460 lung) of 7.05 µM and a GI50 (NCI-H522 lung) of 3.47 µM. The TGI (NCI-H522 lung) was greater than 63 µM, the GI50 (NCI/ADR-RES ovarian) was 0.506 µM and the TGI (NCI/ADR-RES ovarian) was 26.3 µM. For the same molecule, the GI50 (OVCAR-3 ovarian) was 0.37 µM, the TGI (OVCAR-3 ovarian) was 51.7 µM and the GI50 (OVCAR-4 ovarian) was 0.18 µM. The GI50 (OVCAR-5 ovarian) was 5.39 µM, the TGI (OVCAR-5 ovarian) was greater than 100 µM and the GI50 (OVCAR-8 ovarian) was 0.449 µM. It also gave a TGI (OVCAR-8 ovarian) greater than 100 µM, a GI50 (PC-3 prostate) of 0.428 µM and a TGI (PC-3 prostate) greater than 39.1 µM. For the same molecule, the GI50 (RPMI-8226 leukemia) was 0.332 µM, the GI50 (RXF 393 renal) was 11.5 µM and the TGI (RXF 393 renal) was greater than 100 µM. It also gave a GI50 (SF-268 CNS) of 0.599 µM, a TGI (SF-268 CNS) greater than 100 µM and a GI50 (SF-295 CNS) of 0.516 µM. For the same molecule, the TGI (SF-295 CNS) was 30.6 µM, the GI50 (SF-539 CNS) was 0.501 µM and the TGI (SF-539 CNS) was 6.33 µM. The GI50 (SK-MEL-2 melanoma) was 3.4 µM, the TGI (SK-MEL-2 melanoma) was greater than 50.4 µM and the GI50 (SK-MEL-28 melanoma) was 1.37 µM. For the same molecule, the TGI (SK-MEL-28 melanoma) was 98.3 µM, the GI50 (SK-MEL-5 melanoma) was 0.5 µM and the TGI (SK-MEL-5 melanoma) was 4.91 µM. For the same molecule, the GI50 (SK-OV-3 ovarian) was 0.676 µM, the TGI (SK-OV-3 ovarian) was 40.5 µM and the GI50 (SN12C renal) was 0.989 µM. It also gave a TGI (SN12C renal) greater than 94.9 µM, a GI50 (SNB-19 CNS) of 2.04 µM and a TGI (SNB-19 CNS) greater than 100 µM. For the same molecule, the GI50 (SNB-75 CNS) was 2.09 µM, the TGI (SNB-75 CNS) was greater than 77.9 µM and the GI50 (SR leukemia) was 0.0576 µM. It also gave a TGI (SR leukemia) of 0.363 µM, a GI50 (SW-620 colon) of 1.23 µM and a TGI (SW-620 colon) greater than 100 µM. For the same molecule, the GI50 (T-47D breast) was 0.582 µM, the TGI (T-47D breast) was 37.5 µM and the GI50 (TK-10 renal) was 0.567 µM. The TGI (TK-10 renal) was greater than 100 µM, the GI50 (U251 CNS) was 0.375 µM and the TGI (U251 CNS) was greater than 100 µM. The GI50 (UACC-257 melanoma) was 0.693 µM, the TGI (UACC-257 melanoma) was 47.6 µM and the GI50 (UACC-62 melanoma) was 0.407 µM. For the same molecule, the TGI (UACC-62 melanoma) was 14.7 µM and the GI50 (UO-31 renal) was 0.303 µM.
